Patent US20220144826A1, “Heteroaromatic and Heterobicyclic Aromatic Derivatives for the Treatment of Ferroptosis-Related Disorders” (COLLABORATIVE MEDICINAL DEVELOPMENT, LLC, priority 2019, published 2022)

System: N27 rat dopaminergic neural cells
Experiment: MTT assay in N27 rat dopaminergic neural cells: inhibition of RSL3-induced cell death (ferroptosis)
Assay type: cell-based
Details: ferroptosis induced by 0.5 μM RSL3, 24 hours, viability by MTT
Experimental: MTT Assay in N27 Rat Dopaminergic Neural Cells
N27 rat dopaminergic neural cells (Millipore, SCC048) were cultured in RPMI-1640 media (Wisent, 350-000) supplemented with 1×GlutaMAX (Gibco, 35050-061), 10% FBS (embryonic stem cell qualified; Wisent, 920-040), and 1× Penicillin-Streptomycin (Wisent, 450-201). Cells were grown in humidified tissue culture incubator at 37° C. with 5% CO2, for up to 10 passages. To evaluate the ability of test compounds to inhibit RSL3-induced cell death, N27 cells were seeded in clear 96-well tissue culture plates (Sarstedt, 83.3924) at a density of 15,000 cells/well. On the next day, the medium was changed to fresh complete RPMI-1640. Eight-point dilution series of test compounds were added to the cells. Then, ferroptosis was induced by addition of 0.5 μM RSL3 (vehicle-treated cells served as control). Ferrostatin-1 (Fer-1) was included in each assay as control inhibitor of ferroptosis. Plates were incubated for 24 hours at 37° C. in a tissue culture incubator, then cell viability was determined by MTT assay. Briefly, Thiazolyl Blue Tetrazolium Bromide [3-(4,5-dimethylthiazol-2-yl)-2,5-diphenyltetrazolium bromide or “MTT” ] (Sigma) stock solution (5 mg/mL in PBS, sterilized by filtration) was diluted 1:1 with complete growth medium, and added on the cells to a final concentration of 0.5 mg/mL. Cells were incubated with MTT for 4 hours at 37° C., protected from light, in a humidified, 5% CO2 atmosphere. Medium was then completely removed from the wells by gentle aspiration and converted MTT formazan crystals were dissolved in 150 μL of DMSO. Absorbance of converted dye was measured at 595 nm with background subtraction at 690 nm using the BioTek Cytation5 Microplate Reader. Blank reading (absorbance from wells containing media and vehicle only, no cells) was removed from all sample wells. Viability was calculated as a percentage of control cells (vehicle-treated cells were set as 100% viability). Dose-response curves were drawn and IC50 values were calculated using GraphPad Prism software, version 7.

[1] = Rattus norvegicus, N27, 24 h, cell unit uM

SMILES	IC50 (Rattus norvegicus, N27, 24 h)	further results
CCCC#Cc1nc2c(c(NC3CCCC3)n1)NCCC2 [Compound A-27, N-cyclopentyl-2-pent-1-ynyl-5,6,7,8-tetrahydropyrido[3,2-d]pyrimidin-4-amine]	34 nM	
CCCCOc1nc2c(c(NC3CCCC3)n1)NCCC2 [Compound B-323, 2-Butoxy-N-cyclopentyl-5,6,7,8-tetrahydropyrido[3,2-d]pyrimidin-4-amine]	43 nM	
c1ncc(-c2ncc(NC3COC3)c(NC3CCCC3)n2)cn1 [Compound F-82, N^4-cyclopentyl-N^5-(oxetan-3-yl)-2-pyrimidin-5-yl-pyrimidine-4,5-diamine]	> 625 nM	
CCC(C)Nc1cnc(-c2cccnc2)nc1NC1CCCC1 (stereo not shown) [Compound F-78, N^4-cyclopentyl-2-(3-pyridyl)-N^5-sec-butyl-pyrimidine-4,5-diamine]	89 nM	
COc1ccc(-c2ccc(NC3COC3)c(NC3CCCC3)n2)cc1 [Compound H-87, N^2-cyclopentyl-6-(4-methoxyphenyl)-N^3-(oxetan-3-yl)pyridine-2,3-diamine]	3 nM	
CCCCCc1nc2c(c(NC3CCCC3)n1)NCCC2 [Compound A-63, N-cyclopentyl-2-pentyl-5,6,7,8-tetrahydropyrido[3,2-d]pyrimidin-4-amine]		IC50: 313 nM
CCCCCc1nc2c(c(NC3CCCC3)n1)NCCC2 [Compound B-349, N-Cyclopentyl-2-pentyl-5,6,7,8-tetrahydropyrido[3,2-d]pyrimidin-4-amine]	170 nM	
CCC(C)Nc1ccc(-c2ccccn2)nc1NC1(C)CCOC1 [Compound L-22, N^2-(3-methyltetrahydrofuran-3-yl)-6-(2-pyridyl)-N^3-sec-butyl-pyridine-2,3-diamine]	14 nM	
CCCCC(=O)c1cc(N)c2c(c1)CCCN2Cc1ccccc1 [Compound B-133]	2900 nM	
CCCCC(=O)c1cc2c(c(NC3CCOC3)c1)NCCC2 (stereo not shown) [Compound Q-879, 1-[8-(tetrahydrofuran-3-ylamino)-1,2,3,4-tetrahydroquinolin-6-yl]pentan-1-one]	16.8 nM	
CCOC(=O)c1cc2c(c(NC3CCCC3)c1)NC(C)(C)CC2 [Compound B-273, Ethyl 8-cyclopentylamino-2,2-dimethyl-3,4-dihydro-1H-quinoline-6-carboxylate]	1040 nM	
CN(C)C(=O)c1ccc(-c2ccc(NC3CCC3)c(NC3(C)CCOC3)n2)cc1 (stereo not shown) [Compound P-53, 4-[5-(cyclobutylamino)-6-[(3-methyltetrahydrofuran-3-yl)amino]-2-pyridyl]-N,N-dimethyl-benzamide]	24 nM	
CCC(C)Nc1ccc(-c2ccc(C)cc2)nc1NC(C)(C)C [Compound L-02, N^2-tert-butyl-6-(p-tolyl)-N^3-sec-butyl-pyridine-2,3-diamine]	5 nM	
CCCCC(O)c1nc2c(c(Nc3ccccn3)n1)NCCC2 (stereo not shown) [Compound G-63, 1-[4-(2-pyridylamino)-5,6,7,8-tetrahydropyrido[3,2-d]pyrimidin-2-yl]pentan-1-ol]		IC50 [1]: > 10000 nM
CCCCC(=O)c1nc2c(c(Nc3ccccn3)n1)NCCC2 [Compound G-65, 1-[4-(2-pyridylamino)-5,6,7,8-tetrahydropyrido[3,2-d]pyrimidin-2-yl]pentan-1-one]		IC50 [1]: > 10000 nM
Cc1ccc(-c2nc(NC3CCCC3)c3c(n2)C(=O)N(C)C(C)(C)N3)cc1 [Compound K-36, 8-(cyclopentylamino)-2,2,3-trimethyl-6-(p-tolyl)-1H-pyrimido[5,4-d]pyrimidin-4-one]	525 nM	
CCCCC(=O)c1ccc2c(c1)C=CC(C)(C)N2 [Compound B-100, 1-(2,2-dimethyl-1,2-dihydroquinolin-6-yl)pentan-1-one]	7440 nM	
CCC/C=C/c1nc(NC2CCCC2)c2c(n1)OCCN2 [Compound B-710, N-cyclopentyl-2-[(E)-pent-1-enyl]-6,7-dihydro-5H-pyrimido[4,5-b][1,4]oxazin-4-amine]	22 nM	
c1ncc(-c2ccc(NC3COC3)c(NC3CCCC3)n2)cn1 [Compound H-84, N^2-cyclopentyl-N^3-(oxetan-3-yl)-6-pyrimidin-5-yl-pyridine-2,3-diamine]	32 nM	
CC1(Nc2nc(-c3ccc(F)cc3)ccc2NC2CCOC2)CCOC1 (stereo not shown) [Compound M-23, 6-(4-fluorophenyl)-N^2-(3-methyltetrahydrofuran-3-yl)-N^3-tetrahydrofuran-3-yl-pyridine-2,3-diamine]	3 to 6 nM	
CCCCN(C)c1nc2c(c(NC3CCCC3)n1)NCCC2 [Compound B-434, N2-Butyl-N4-cyclopentyl-N2-methyl-5,6,7,8-tetrahydropyrido[3,2-d]pyrimidine-2,4-diamine]	397 nM	
CC1(Nc2nc(-c3ccccn3)ccc2NC2CCOC2)CCOC1 [Compound L-23, N^2-(3-methyltetrahydrofuran-3-yl)-6-(2-pyridyl)-N^3-tetrahydrofuran-3-yl-pyridine-2,3-diamine]	141 nM	

SMILES	IC50 (Rattus norvegicus, N27, 24 h)	further results
C1CNc2c(nc(C3CCCC3)nc2NC2CCCC2)C1 [Compound B-456, N,2-Dicyclopentyl-5,6,7,8-tetrahydropyrido[3,2-d]pyrimidin-4-amine]	153 nM	
CON(C)C(=O)c1ccc2c(c1)C=CC(C)(C)N2 [Compound B-065]	> 3000 nM	
CCCCCc1ccc(NC(C)CC)c(NC2CCCC2)n1 (stereo not shown) [Compound H-72, N^2-cyclopentyl-6-pentyl-N^3-sec-butyl-pyridine-2,3-diamine]	6 nM	
OC(c1ccccc1)c1nc2c(c(NC3CCCC3)n1)NCCC2 (stereo not shown) [Compound A-10, [4-(cyclopentylamino)-5,6,7,8-tetrahydropyrido[3,2-d]pyrimidin-2-yl]-phenyl-methanol]	71 nM	
CCC(C)Nc1ccc(-c2ccncc2)nc1NC(C)(C)C (stereo not shown) [Compound P-22]	1 nM	
CCC/C=C/c1nc(NC2CCCC2)c2c(n1)SCC(=O)N2 [Compound B-600, 4-(cyclopentylamino)-2-[(1E)-pent-1-en-1-yl]-5H,6H,7H-pyrimido[4,5-b][1,4]thiazin-6-one]	≥ 3000 nM	
CCCCC(=O)c1cc2c(c(Nc3ccccn3)c1)NCCC2 [Compound B-249, 1-{8-[(pyridin-2-yl)amino]-1,2,3,4-tetrahydroquinolin-6-yl}pentan-1-one]	343 nM	
CCCCC(O)c1nc2c(c(N3CCCC3)n1)NCCC2 (stereo not shown) [Compound E-09]	492 nM	
CC(C)(C)Nc1nc(OCC(F)(F)F)cc2c1NCC(C(F)(F)F)C2 (stereo not shown) [Compound S-101, N-tert-butyl-6-(2,2,2-trifluoroethoxy)-3-(trifluoromethyl)-1,2,3,4-tetrahydro-1,7-naphthyridin-8-amine]	1260 nM	
CCCCC(=O)c1cc(N)c2c(c1)CCCN2 [Compound B-059, 1-(8-amino-1,2,3,4-tetrahydroquinolin-6-yl)pentan-1-one]	149 nM	
CCC(C)Nc1cnc(-c2ccc(C)cc2)nc1NC1CCCC1 (stereo not shown) [Compound F-69, N^4-cyclopentyl-2-(p-tolyl)-N^5-sec-butyl-pyrimidine-4,5-diamine]	28 nM	
Clc1nc2c(c(NC3CCCC3)n1)NCCC2 [Compound J-84]	273 nM	
CCCCC(=O)c1cc(F)c2c(c1)CCCN2 [Compound B-132]	> 3000 nM	
CCCC(=O)c1ccc(NC(C)CC)c(NC2CCCC2)n1 [Compound L-34, 1-[6-(cyclopentylamino)-5-(sec-butylamino)-2-pyridyl]butan-1-one]	21 nM	
CCC(C)Nc1cnc(-c2cncnc2)nc1NC1CCCC1 (stereo not shown) [Compound F-81, N^4-cyclopentyl-2-pyrimidin-5-yl-N^5-sec-butyl-pyrimidine-4,5-diamine]	121 nM	
O=C(c1ccc(F)cc1)c1nc2c(c(NC3CCCC3)n1)NCCC2 [Compound A-17, [4-(cyclopentylamino)-5,6,7,8-tetrahydropyrido[3,2-d]pyrimidin-2-yl]-(4-fluorophenyl)methanone]	123 nM	
OC(c1ccc(F)cc1)c1nc2c(c(NC3CCCC3)n1)NCCC2 (stereo not shown) [Compound A-11, [4-(cyclopentylamino)-5,6,7,8-tetrahydropyrido[3,2-d]pyrimidin-2-yl]-(4-fluorophenyl)methanol]	36 nM	
c1nc2c(c(NC3CCCC3)n1)NCCC2 [Compound C-84, N-cyclopentyl-5,6,7,8-tetrahydropyrido[3,2-d]pyrimidin-4-amine]	646 nM	
CCCCC(=O)c1cc2c(c(NS(=O)(=O)CC(C)C)c1)NCCC2 [Compound B-251, 2-methyl-N-(6-pentanoyl-1,2,3,4-tetrahydroquinolin-8-yl)propane-1-sulfonamide]	9300 nM	
CNC(=O)c1nc(-c2ccc(C)cc2)nc2c1NC(C)(C)N2C1CCCC1 [Compound K-34]		IC50 [1]: > 10000 nM
CCC(C)Nc1ccc(C(F)(F)F)nc1NC1CCCC1 (stereo not shown) [Compound K-65, N^2-cyclopentyl-N^3-sec-butyl-6-(trifluoromethyl)pyridine-2,3-diamine]	45 nM	
